Laboratory results reported in ChEMBL document CHEMBL3885881, “DrugMatrix”.

Species: Rattus norvegicus
Assay: DrugMatrix - Regimen: Daily Repeat
Type: toxicity, organism-based, Sprague-Dawley
Design: regimen Daily Repeat, gender Male, age 6-8 weeks
Conditions: in vivo, po, route oral GAVAGE, […]; for ABSOLUTE BASOPHIL / ABSOLUTE EOSINOPHIL / ABSOLUTE LYMPHOCYTE / ABSOLUTE MONOCYTE / ABSOLUTE SEGMENTED NEUTROPHIL / BASOPHIL / EOSINOPHIL / ERYTHROCYTE COUNT / HEMATOCRIT / HEMOGLOBIN / LEUKOCYTE COUNT / LYMPHOCYTE / MEAN CORPUSCULAR HEMOGLOBIN / MEAN CORPUSCULAR HEMOGLOBIN CONCENTRATION / MEAN CORPUSCULAR VOLUME / MONOCYTE / NEUTROPHIL / NUCLEATED RED BLOOD CELLS / PLATELET COUNT: tissue Blood; for ALANINE AMINOTRANSFERASE / ALBUMIN / ALKALINE PHOSPHATASE / ASPARTATE AMINOTRANSFERASE / BLOOD UREA NITROGEN / CARBON DIOXIDE / CHLORIDE / CHOLESTEROL / CREATININE / GLUCOSE / LACTATE DEHYDROGENASE / LIPASE / PHOSPHORUS / POTASSIUM / SODIUM / TOTAL BILIRUBIN / TOTAL PROTEIN / URIC ACID: tissue Plasma
[1] = 0 mg/kg, 72 h, dose level Control, time 3 day
[2] = 0 mg/kg, 120 h, dose level Control, time 5 day
[3] = 250 mg/kg, 72 h, dose level Low, time 3 day

CC(C)Cc1ccc(CC(=O)O)cc1 [IBUFENAC]
ABSOLUTE BASOPHIL [1]: 0 CELLS/uL
ABSOLUTE EOSINOPHIL [1]: 255.83 CELLS/uL
ABSOLUTE LYMPHOCYTE [1]: 11617.83 CELLS/uL
ABSOLUTE MONOCYTE [1]: 307.5 CELLS/uL
ABSOLUTE SEGMENTED NEUTROPHIL [1]: 1902.17 CELLS/uL
BASOPHIL [1]: 0%
EOSINOPHIL [1]: 1.83%
ERYTHROCYTE COUNT [1]: 5.58 x10E6/uL
HEMATOCRIT [1]: 33.62%
HEMOGLOBIN [1]: 12.42 G/DL
LEUKOCYTE COUNT [1]: 14.08 x10E3/uL
LYMPHOCYTE [1]: 82.67%
MEAN CORPUSCULAR HEMOGLOBIN [1]: 22.32 pg
MEAN CORPUSCULAR HEMOGLOBIN CONCENTRATION [1]: 36.98 G/DL
MEAN CORPUSCULAR VOLUME [1]: 60.4 fL
MONOCYTE [1]: 2.17%
NEUTROPHIL [1]: 13.33%
NUCLEATED RED BLOOD CELLS [1]: 0 /100WBC
PLATELET COUNT [1]: 1154.67 x10E3/uL
ALANINE AMINOTRANSFERASE [1]: 64.67 u/L
ALBUMIN [1]: 4.18 G/DL
ALKALINE PHOSPHATASE [1]: 382.67 u/L
ASPARTATE AMINOTRANSFERASE [1]: 123.17 u/L
BLOOD UREA NITROGEN [1]: 17.67 mg/dL
CARBON DIOXIDE [1]: 24.33 mmol/L
CHLORIDE [1]: 101.67 MEQ/L
CHOLESTEROL [1]: 76.5 mg/dL
CREATININE [1]: 0.2 mg/dL
GLUCOSE [1]: 175.33 mg/dL
LACTATE DEHYDROGENASE [1]: 331 u/L
LIPASE [1]: 10.17 u/L
PHOSPHORUS [1]: 12.77 mg/dL
POTASSIUM [1]: 6.65 MEQ/L
SODIUM [1]: 145.8 MEQ/L
TOTAL BILIRUBIN [1]: 0.2 mg/dL
TOTAL PROTEIN [1]: 6.07 G/DL
URIC ACID [1]: 1.78 mg/dL
ABSOLUTE BASOPHIL [2]: 0 CELLS/uL
ABSOLUTE EOSINOPHIL [2]: 155.33 CELLS/uL
ABSOLUTE LYMPHOCYTE [2]: 12695.83 CELLS/uL
ABSOLUTE MONOCYTE [2]: 475.67 CELLS/uL
ABSOLUTE SEGMENTED NEUTROPHIL [2]: 1989.83 CELLS/uL
BASOPHIL [2]: 0%
EOSINOPHIL [2]: 1%
ERYTHROCYTE COUNT [2]: 5.75 x10E6/uL
HEMATOCRIT [2]: 34.98%
HEMOGLOBIN [2]: 12.73 G/DL
LEUKOCYTE COUNT [2]: 15.32 x10E3/uL
LYMPHOCYTE [2]: 83%
MEAN CORPUSCULAR HEMOGLOBIN [2]: 22.17 pg
MEAN CORPUSCULAR HEMOGLOBIN CONCENTRATION [2]: 36.4 G/DL
MEAN CORPUSCULAR VOLUME [2]: 60.92 fL
MONOCYTE [2]: 3%
NEUTROPHIL [2]: 13%
NUCLEATED RED BLOOD CELLS [2]: 0 /100WBC
PLATELET COUNT [2]: 1081.33 x10E3/uL
ALANINE AMINOTRANSFERASE [2]: 55 u/L
ALBUMIN [2]: 4.12 G/DL
ALKALINE PHOSPHATASE [2]: 354.67 u/L
ASPARTATE AMINOTRANSFERASE [2]: 91 u/L
BLOOD UREA NITROGEN [2]: 15 mg/dL
CARBON DIOXIDE [2]: 27.17 mmol/L
CHLORIDE [2]: 100.5 MEQ/L
CHOLESTEROL [2]: 71.5 mg/dL
CREATININE [2]: 0.18 mg/dL
GLUCOSE [2]: 169.17 mg/dL
LACTATE DEHYDROGENASE [2]: 324 u/L
LIPASE [2]: 10.5 u/L
PHOSPHORUS [2]: 12.07 mg/dL
POTASSIUM [2]: 6.58 MEQ/L
SODIUM [2]: 141.92 MEQ/L
TOTAL BILIRUBIN [2]: 0.12 mg/dL
TOTAL PROTEIN [2]: 5.88 G/DL
URIC ACID [2]: 1.6 mg/dL
ABSOLUTE BASOPHIL [3]: 0 CELLS/uL
ABSOLUTE EOSINOPHIL [3]: 268.67 CELLS/uL
ABSOLUTE LYMPHOCYTE [3]: 13501.33 CELLS/uL
ABSOLUTE MONOCYTE [3]: 489 CELLS/uL
ABSOLUTE SEGMENTED NEUTROPHIL [3]: 2041 CELLS/uL
BASOPHIL [3]: 0%
EOSINOPHIL [3]: 1.67%
ERYTHROCYTE COUNT [3]: 5.57 x10E6/uL
HEMATOCRIT [3]: 33.83%
HEMOGLOBIN [3]: 12.4 G/DL
LEUKOCYTE COUNT [3]: 16.3 x10E3/uL
LYMPHOCYTE [3]: 83%
MEAN CORPUSCULAR HEMOGLOBIN [3]: 22.23 pg
MEAN CORPUSCULAR HEMOGLOBIN CONCENTRATION [3]: 36.67 G/DL
MEAN CORPUSCULAR VOLUME [3]: 60.7 fL
MONOCYTE [3]: 3%
NEUTROPHIL [3]: 12.33%
NUCLEATED RED BLOOD CELLS [3]: 0 /100WBC
PLATELET COUNT [3]: 1296 x10E3/uL
ALANINE AMINOTRANSFERASE [3]: 64.67 u/L
ALBUMIN [3]: 4.3 G/DL
ALKALINE PHOSPHATASE [3]: 362.33 u/L
ASPARTATE AMINOTRANSFERASE [3]: 94.67 u/L
BLOOD UREA NITROGEN [3]: 15.67 mg/dL
CARBON DIOXIDE [3]: 26.67 mmol/L
CHLORIDE [3]: 103 MEQ/L
CHOLESTEROL [3]: 79.33 mg/dL
CREATININE [3]: 0.15 mg/dL
GLUCOSE [3]: 164.67 mg/dL
LACTATE DEHYDROGENASE [3]: 128.67 u/L
LIPASE [3]: 9.67 u/L
PHOSPHORUS [3]: 11.4 mg/dL
POTASSIUM [3]: 6.53 MEQ/L
SODIUM [3]: 146.97 MEQ/L
TOTAL BILIRUBIN [3]: 0.17 mg/dL
TOTAL PROTEIN [3]: 6.03 G/DL
URIC ACID [3]: 1.43 mg/dL
